According to patent US20240218022A1, “ANTI-VISTA MACROCYCLIC PEPTIDES AND COMPOSITIONS” (BRISTOL-MYERS SQUIBB COMPANY, priority 2022, published 2024):
Where two headings read alike, the source gives them in different places. Starred links: 1 amine or outer side, 2 acyl side, 3 side chain; linkers in the order of their positions; H or OH if unused. Positions of bridges follow the written chain, without caps; N, C: chain ends. Non-standard residues stand in square brackets, D forms with d. Residues, ends and D or L forms follow the SMILES beside them. ξ: configuration not given here. Phe(3-CF3) = N[C@@H](Cc1cccc(C(F)(F)F)c1)C(=O)O; Phe(3-Me) = Cc1cccc(C[C@H](N)C(=O)O)c1; γGlu = O=C(O)[C@H](CCC(=O)[*:2])N[*:1]; 2Nal = N[C@@H](Cc1ccc2ccccc2c1)C(=O)O; βAsp = O=C(O)[C@H](CC(=O)[*:2])N[*:1]; Cit = NC(=O)NCCC[C@H](N)C(=O)O; Ile(3ξ) = CCC(C)[C@H](N)C(=O)O; Ahp(2) = CCCCC[C@H](N)C(=O)O; NMeNle = CCCC[C@H](NC)C(=O)O; Tle = CC(C)(C)[C@H](N)C(=O)O; NHexGly = CCCCCCNCC(=O)O; Nle = CCCC[C@H](N)C(=O)O; Orn = NCCC[C@H](N)C(=O)O; Aun = NCCCCCCCCCCC(=O)O; Nva = CCC[C@H](N)C(=O)O; AEEA = NCCOCCOCC(=O)O; ξS = NC(CO)C(=O)O

Molecular target: T1, mouse VISTA (mVISTA) (Mus musculus, UniProt Q9D659)
T1 construct: expressed in transfected cells; host or cells: Human embryonic kidney 293T cells
T1 sequence (Q9D659 33-308): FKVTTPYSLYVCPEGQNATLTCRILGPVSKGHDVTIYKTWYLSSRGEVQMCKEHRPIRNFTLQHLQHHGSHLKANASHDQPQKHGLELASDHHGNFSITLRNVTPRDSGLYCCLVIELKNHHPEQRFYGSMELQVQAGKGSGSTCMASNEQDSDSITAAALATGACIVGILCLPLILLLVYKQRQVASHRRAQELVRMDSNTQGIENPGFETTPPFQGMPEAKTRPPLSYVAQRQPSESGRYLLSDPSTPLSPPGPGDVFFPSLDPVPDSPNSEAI
Assay: Cell-Based Binding High-Content Assay For mVISTA (HC CBA mVISTA)
Procedure, shortened: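 This high-content binding assay uses HEK293T cells expressing murine VISTA, measuring displacement of 2 nM biotinylated peptide by fluorescent streptavidin imaging. IC50 values come from four-parameter logistic fitting.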

[1] = 293T cells expressing mouse VISTA, competition with biotinylated peptide (2 nM), read-out: HC CBA mVISTA IC50

IC50 (read-out: HC CBA mVISTA IC50) [µM] | Structure (SMILES) | further results
0.0203 | CCCCCCN1CC(=O)N[C@@H](Cc2ccc(O)cc2)C(=O)N[C@@H](CCCCC)C(=O)N[C@@H](CC(N)=O)C(=O)N[C@@H](CCCNC(=N)N)C(=O)N[C@@H](CC(C)C)C(=O)N[C@@H](CCCCC)C(=O)N2CCC[C@H]2C(=O)N[C@@H](C(C)C)C(=O)N[C@@H](CO)C(=O)N[C@H](C(=O)NCC(N)=O)CSCC(=O)N[C@@H](Cc2ccccc2)C(=O)N[C@@H](Cc2c[nH]c3ccccc23)C(=O)N[C@@H](CC(=O)O)C1=O [Example 1354] ({CH2CO}-FWD[NHexGly]Y[Ahp(2)]NRL[Ahp(2)]PVSCG-NH2; thioether N-14) | –
0.0106 | CCCCCCN1CC(=O)N[C@@H](Cc2ccc(O)cc2)C(=O)N[C@@H](CCCC)C(=O)N[C@@H](CC(=O)O)C(=O)N[C@@H](CCCNC(=N)N)C(=O)N(C)[C@@H](CCCC)C(=O)N[C@@H](CCCCC)C(=O)N2CCC[C@H]2C(=O)N[C@@H](C(C)C)C(=O)N[C@@H](CC(=O)O)C(=O)N[C@H](C(=O)NC(CO)C(N)=O)CSCC(=O)N[C@@H](Cc2ccccc2)C(=O)N[C@@H](Cc2cccc(C)c2)C(=O)N[C@@H](CC(=O)O)C1=O (some centres unmarked) [compound 1347] ({CH2CO}-F[Phe(3-Me)]D[NHexGly]Y[Nle]DR[NMeNle][Ahp(2)]PVDC[ξS]-NH2; thioether N-14) | –
0.0152 | CCCCCCN1CC(=O)N[C@@H](Cc2ccc(O)cc2)C(=O)N[C@@H](CCCC)C(=O)N[C@@H](CC(N)=O)C(=O)N[C@@H](CCCNC(=N)N)C(=O)N[C@@H](CC(C)C)C(=O)N[C@@H](CCCCC)C(=O)N2CCC[C@H]2C(=O)N[C@@H](C(C)C)C(=O)N[C@@H](CC(=O)O)C(=O)N[C@H](C(=O)NCCOCCOCC(=O)N[C@@H](CC(=O)NCCOCCOCC(=O)NCCCCCCCCCCC(=O)O)C(=O)O)CSCC(=O)N[C@@H](Cc2cccc(C)c2)C(=O)N[C@@H](Cc2c[nH]c3ccccc23)C(=O)N[C@@H](CC(=O)O)C1=O [Example 2198] ({CH2CO}-[Phe(3-Me)]WD[NHexGly]Y[Nle]NRL[Ahp(2)]PVDC[AEEA][βAsp][AEEA][Aun]-OH; thioether N-14) | –
– | CCCCCCN1CC(=O)N[C@@H](Cc2ccc(O)cc2)C(=O)N[C@@H](CCCC)C(=O)NCC(=O)N[C@@H](CCCNC(N)=O)C(=O)N[C@@H](CC(C)C)C(=O)N[C@@H](CCCCC)C(=O)N2CCC[C@H]2C(=O)N[C@@H](C(C)C)C(=O)N[C@@H](CC(=O)O)C(=O)N[C@H](C(=O)NCC(N)=O)CSCC(=O)N[C@@H](Cc2ccc3ccccc3c2)C(=O)N[C@@H](Cc2ccc(O)cc2)C(=O)N[C@@H](CC(=O)O)C1=O [Ex 1303] ({CH2CO}-[2Nal]YD[NHexGly]Y[Nle]G[Cit]L[Ahp(2)]PVDCG-NH2; thioether N-14) | IC50 (cell-based binding high-content assay, mVISTA, the 16th table, read-out: HC CBA mVISTA IC50): 0.0088 µM
– | CCCCCCN1CC(=O)N[C@@H](Cc2ccc(O)cc2)C(=O)N[C@@H](CCCCC)C(=O)N[C@@H](CC(=O)O)C(=O)N[C@@H](CCCNC(=N)N)C(=O)N[C@@H](CC(C)C)C(=O)N[C@@H](CCCCC)C(=O)N2CCC[C@H]2C(=O)N[C@@H](C(C)C)C(=O)N[C@@H](CC(=O)O)C(=O)N[C@H](C(=O)NCC(N)=O)CSCC(=O)N[C@@H](Cc2ccccc2)C(=O)N[C@@H](Cc2ccc(O)cc2)C(=O)N[C@@H](CC(=O)O)C1=O [Example 1015] ({CH2CO}-FYD[NHexGly]Y[Ahp(2)]DRL[Ahp(2)]PVDCG-NH2; thioether N-14) | IC50 [1]: 0.0087 µM
0.0235 | CCCCCCN1CC(=O)N[C@@H](Cc2ccc(O)cc2)C(=O)N[C@@H](CC(C)C)C(=O)N[C@@H](CC(N)=O)C(=O)N[C@@H](CCCN)C(=O)N(C)[C@@H](CCCC)C(=O)N[C@@H](CCCCC)C(=O)N2CCC[C@H]2C(=O)N[C@@H](C(C)(C)C)C(=O)N[C@@H](CO)C(=O)N[C@H](C(=O)N[C@@H](CCC(=O)NCCCCCCCCCCC(=O)O)C(=O)O)CSCC(=O)N[C@@H](Cc2ccccc2)C(=O)N[C@@H](Cc2ccc(O)cc2)C(=O)N[C@@H](CC(=O)O)C1=O [Example 2132] ({CH2CO}-FYD[NHexGly]YLN[Orn][NMeNle][Ahp(2)]P[Tle]SC[γGlu][Aun]-OH; thioether N-14) | –
0.0327 | CCCCCCN1CC(=O)N[C@@H](Cc2ccc(O)cc2)C(=O)N[C@@H](CCCC)C(=O)N[C@@H](CC(N)=O)C(=O)N[C@@H](CCCNC(=N)N)C(=O)N(C)[C@@H](CCCC)C(=O)N[C@@H](CCCCC)C(=O)N2CCC[C@H]2C(=O)N[C@@H](C(C)C)C(=O)N[C@@H](CC(=O)O)C(=O)N[C@H](C(=O)NCCOCCOCC(=O)N[C@@H](CCC(=O)NCCOCCOCC(=O)NCCCCCCCCCCC(=O)O)C(=O)O)CSCC(=O)N[C@@H](Cc2ccc3ccccc3c2)C(=O)N[C@@H](Cc2c[nH]c3ccccc23)C(=O)N[C@@H](CC(=O)O)C1=O [compound 2214] ({CH2CO}-[2Nal]WD[NHexGly]Y[Nle]NR[NMeNle][Ahp(2)]PVDC[AEEA][γGlu][AEEA][Aun]-OH; thioether N-14) | –
0.0237 | CCCCCCN1CC(=O)N[C@@H](Cc2ccc(O)cc2)C(=O)N[C@@H](CC(C)C)C(=O)N[C@@H](CC(N)=O)C(=O)N[C@@H](CCCNC(=N)N)C(=O)N[C@@H](CC(C)C)C(=O)N[C@@H](CCCCC)C(=O)N2CCC[C@H]2C(=O)N[C@@H](C(C)(C)C)C(=O)N[C@@H](CC(=O)O)C(=O)N[C@H](C(=O)NCCOCCOCC(=O)N[C@@H](CCC(=O)NCCOCCOCC(=O)NCCCCCCCCCCC(=O)O)C(=O)O)CSCC(=O)N[C@@H](Cc2ccccc2)C(=O)N[C@@H](Cc2c[nH]c3ccccc23)C(=O)N[C@@H](CC(=O)O)C1=O [compound 2236] ({CH2CO}-FWD[NHexGly]YLNRL[Ahp(2)]P[Tle]DC[AEEA][γGlu][AEEA][Aun]-OH; thioether N-14) | –
– | CCCCCCN1CC(=O)N[C@@H](Cc2ccc(O)cc2)C(=O)N[C@@H](CCCC)C(=O)N[C@@H](CC(N)=O)C(=O)N[C@@H](CCCNC(N)=O)C(=O)N2Cc3ccccc3C[C@H]2C(=O)N[C@@H](CCCCC)C(=O)N2CCC[C@H]2C(=O)N[C@@H](C(C)C)C(=O)N[C@@H](CO)C(=O)N[C@H](C(=O)NCCOCCOCC(=O)N[C@@H](CC(=O)O)C(=O)NCCOCCOCC(=O)NCCCCCCCCCCC(=O)O)CSCC(=O)N[C@@H](Cc2ccccc2)C(=O)N[C@@H](Cc2c[nH]c3ccccc23)C(=O)N[C@@H](CC(=O)O)C1=O (stereo in doubt) [compound 2311] | IC50 (cell-based binding high-content assay, read-out: HC CBA miPrISTA IC50): 0.0284 µM
– | CCCCCCN1CC(=O)N[C@@H](Cc2ccc(O)cc2)C(=O)N[C@@H](CC(C)C)C(=O)N[C@@H](CC(N)=O)C(=O)N[C@@H](CCCNC(=N)N)C(=O)N[C@@H](CC(C)C)C(=O)N[C@@H](CCCCC)C(=O)N2CCC[C@H]2C(=O)N[C@@H](C(C)C)C(=O)N[C@@H](C(C)C)C(=O)N[C@H](C(=O)N[C@@H](CO)C(=O)O)CSCC(=O)N[C@@H](Cc2cccc(C)c2)C(=O)N[C@@H](Cc2c[nH]c3ccccc23)C(=O)N[C@@H](CC(=O)O)C1=O [compound 1426] ({CH2CO}-[Phe(3-Me)]WD[NHexGly]YLNRL[Ahp(2)]PVVCS-OH; thioether N-14) | IC50 (the 19th table, scaffold drawing 22, read-out: HC CBA mVISTA IC50): 0.0041 µM
0.0164 | CCCCCCN1CC(=O)N[C@@H](Cc2ccc(O)cc2)C(=O)N[C@@H](CCCC)C(=O)N[C@@H](CC(N)=O)C(=O)N[C@@H](CCCNC(N)=O)C(=O)N(C)[C@@H](CCCC)C(=O)N[C@@H](CCCCC)C(=O)N2CCC[C@H]2C(=O)N[C@@H](C(C)CC)C(=O)N[C@@H](CO)C(=O)N[C@H](C(=O)NCC(N)=O)CSCC(=O)N[C@@H](Cc2ccccc2)C(=O)N[C@@H](Cc2c[nH]c3ccccc23)C(=O)N[C@@H](CC(=O)O)C1=O (some centres unmarked) [Example 1388] ({CH2CO}-FWD[NHexGly]Y[Nle]N[Cit][NMeNle][Ahp(2)]P[Ile(3ξ)]SCG-NH2; thioether N-14) | –
– | CCCCCCN1CC(=O)N[C@@H](Cc2ccc(O)cc2)C(=O)N[C@@H](CCC)C(=O)NCC(=O)N[C@@H](CCCNC(=N)N)C(=O)N[C@@H](CC(C)C)C(=O)N[C@@H](CCCCC)C(=O)N2CCC[C@H]2C(=O)N[C@@H](C(C)C)C(=O)N[C@@H](CO)C(=O)N[C@H](C(=O)NCC(N)=O)CSCC(=O)N[C@@H](Cc2ccccc2)C(=O)N[C@@H](Cc2ccc(O)cc2)C(=O)N[C@@H](CC(=O)O)C1=O [Example 1060] ({CH2CO}-FYD[NHexGly]Y[Nva]GRL[Ahp(2)]PVSCG-NH2; thioether N-14) | IC50 [1]: 0.0299 µM
– | CCCCCCN1CC(=O)N[C@@H](Cc2ccc(O)cc2)C(=O)N[C@@H](CC(C)C)C(=O)N[C@@H](CC(N)=O)C(=O)N[C@@H](CCCNC(=N)N)C(=O)N(C)[C@@H](CCCC)C(=O)N[C@@H](CCCCC)C(=O)N2CCC[C@H]2C(=O)N[C@@H](C(C)(C)C)C(=O)N[C@@H](CC(=O)O)C(=O)N[C@H](C(=O)N[C@@H](CC(=O)NCCOCCOCC(=O)N[C@@H](CC(=O)O)C(=O)NCCOCCOCC(=O)NCCCCCCCCCCC(=O)O)C(=O)O)CSCC(=O)N[C@@H](Cc2ccccc2)C(=O)N[C@@H](Cc2ccc(O)cc2)C(=O)N[C@@H](CC(=O)O)C1=O [compound 2029] ({CH2CO}-FYD[NHexGly]YLNR[NMeNle][Ahp(2)]P[Tle]DC[βAsp][AEEA]D[AEEA][Aun]-OH; thioether N-14) | IC50 (cell-based binding high-content assay, mVISTA, read-out: HC CBA miPr ISTA IC50): 0.0175 µM

Structure (SMILES) | IC50 (read-out: HC CBA mVISTA IC50) [µM] | further results
CCCCCCN1CC(=O)N[C@@H](Cc2ccc(O)cc2)C(=O)N[C@@H](CC(C)C)C(=O)N[C@@H](CC(N)=O)C(=O)N[C@@H](CCCNC(=N)N)C(=O)N(C)[C@@H](CCCC)C(=O)N[C@@H](CCCCC)C(=O)N2CCC[C@H]2C(=O)N[C@@H](C(C)(C)C)C(=O)N[C@@H](CO)C(=O)N[C@H](C(=O)NCC(N)=O)CSCC(=O)N[C@@H](Cc2cccc(C(F)(F)F)c2)C(=O)N[C@@H](Cc2ccc(O)cc2)C(=O)N[C@@H](CC(=O)O)C1=O [compound 1207] ({CH2CO}-[Phe(3-CF3)]YD[NHexGly]YLNR[NMeNle][Ahp(2)]P[Tle]SCG-NH2; thioether N-14) | 0.0245 | –
